The NIST ThermoML archive (doi:10.1016/j.jct.2005.03.020)
Numbers after ± are expanded uncertainties.

How the values were obtained:
[1] = xn = mol fraction of the nth substance listed; conditions: 298.15 K, 101.33 kPa, Liquid
[2] = excess molar enthalpy (molar enthalpy of mixing); xn = mol fraction of the nth substance listed; conditions: 298.15 K, 101.33 kPa, Liquid

CCOC=O [ethyl methanoate] + ClCCCl
[1]
Conditions | mass density [kg/m3]
x1 = 0.0604 | 1224.56 ± 0.82
x1 = 0.1183 | 1204.73 ± 0.82
x1 = 0.175 | 1185.45 ± 0.84
x1 = 0.2911 | 1146.17 ± 0.89
x1 = 0.3483 | 1126.98 ± 0.92
x1 = 0.4068 | 1107.45 ± 0.96
x1 = 0.4649 | 1088.21 ± 1
x1 = 0.5246 | 1068.52 ± 1.1
x1 = 0.5831 | 1049.26 ± 1.1
x1 = 0.6432 | 1029.61 ± 1.1
x1 = 0.7012 | 1010.71 ± 1.2
x1 = 0.758 | 992.23 ± 1.2
x1 = 0.817 | 973.15 ± 1.3
x1 = 0.8778 | 953.5 ± 1.4
x1 = 0.9362 | 934.65 ± 1.4

CCCCC(=O)OCC [ethyl pentanoate] + ClCCCl
Conditions | excess molar enthalpy [kcal/mol] | mass density [kg/m3]
[1], x1 = 0.0345 | – | 1220.93 ± 0.78
[1], x1 = 0.0687 | – | 1198.23 ± 0.73
[1], x1 = 0.1042 | – | 1176.06 ± 0.69
[1], x1 = 0.1425 | – | 1153.66 ± 0.64
[1], x1 = 0.1817 | – | 1132.12 ± 0.6
[1], x1 = 0.2273 | – | 1108.84 ± 0.56
[1], x1 = 0.2723 | – | 1087.35 ± 0.53
[1], x1 = 0.324 | – | 1064.47 ± 0.49
[1], x1 = 0.3767 | – | 1042.83 ± 0.46
[1], x1 = 0.4332 | – | 1021.3 ± 0.44
[1], x1 = 0.4956 | – | 999.37 ± 0.42
[1], x1 = 0.5633 | – | 977.31 ± 0.45
[1], x1 = 0.6342 | – | 956.13 ± 0.49
[1], x1 = 0.7134 | – | 934.52 ± 0.53
[1], x1 = 0.7992 | – | 912.89 ± 0.57
[1], x1 = 0.894 | – | 893.96 ± 0.61
[2], x2 = 0.0371 | -0.00712 ± 0.000478 | –
[2], x2 = 0.098 | -0.0147 ± 0.000598 | –
[2], x2 = 0.126 | -0.0245 ± 0.000765 | –
[2], x2 = 0.1732 | -0.0363 ± 0.000932 | –
[2], x2 = 0.2196 | -0.0475 ± 0.00112 | –
[2], x2 = 0.2666 | -0.0614 ± 0.00134 | –
[2], x2 = 0.3122 | -0.0744 ± 0.00153 | –
[2], x2 = 0.3542 | -0.0839 ± 0.00167 | –
[2], x2 = 0.4265 | -0.0924 ± 0.00179 | –
[2], x2 = 0.4641 | -0.0946 ± 0.00184 | –
[2], x2 = 0.5103 | -0.0954 ± 0.00184 | –
[2], x2 = 0.5638 | -0.0959 ± 0.00186 | –
[2], x2 = 0.626 | -0.0916 ± 0.00179 | –
[2], x2 = 0.7011 | -0.0817 ± 0.00165 | –
[2], x2 = 0.7962 | -0.0618 ± 0.00134 | –
[2], x2 = 0.896 | -0.0363 ± 0.000932 | –

CCOC(=O)CC [ethyl propanoate] + ClCCCl
[1]
Conditions | mass density [kg/m3]
x1 = 0.0458 | 1221.49 ± 0.78
x1 = 0.0867 | 1201.01 ± 0.74
x1 = 0.131 | 1179.33 ± 0.7
x1 = 0.1761 | 1158.4 ± 0.66
x1 = 0.225 | 1136.63 ± 0.62
x1 = 0.2733 | 1116.14 ± 0.58
x1 = 0.3272 | 1094.1 ± 0.55
x1 = 0.3811 | 1073.16 ± 0.52
x1 = 0.4371 | 1052.35 ± 0.49
x1 = 0.4963 | 1031.27 ± 0.47
x1 = 0.5583 | 1010.27 ± 0.45
x1 = 0.6235 | 989.23 ± 0.46
x1 = 0.69 | 968.72 ± 0.49
x1 = 0.7598 | 948.13 ± 0.52
x1 = 0.835 | 927.04 ± 0.56
x1 = 0.9131 | 906.11 ± 0.6
